The structures appear in SMILES notation. Where a name gives a salt, the structure may show the parent alone.

In this experiment the target is T1, recombinant human ALK enzyme (ALK WT) (Homo sapiens, UniProt Q9UM73).
T1 construct: purchased Carna Biosciences 08-518
The experiment can be described thus: ALK WT cell free enzymatic assay (TR-FRET). The format is biochemical. The settings on record: 1 μM ATP; for IC50: 10 point dose response; for inhibition at 0.1 µM: compound at 100 nM; for inhibition at 0.1 µM / inhibition at 1 µM: 30 min pre-incubation; for inhibition at 1 µM: compound at 1 μM. As for the experimental part: ALK Wild Type (WT) The ALK WT cell free assay was set up to evaluate the effects of these compounds as inhibitors of ALK enzyme. The enzymatic assay was standardized using recombinant human ALK enzyme (Cat#08-518) from Carna Biosciences using Ultra Light Poly GT (Cat# TRF 0100D) from Perkin Elmer as a substrate. TR-FRET (Time resolved fluorescence resonance energy transfer) detection technology was used for the read out. The final assay conditions were 50 mM HEPES pH 7.1, 10 mM MgCl2, 2 mM MnCl2, 0.01% BSA, 2.5 mM DTT, 0.1 mM Na3 VO4, 40 nM Ultra Light Poly GT, 2.5 ng ALK WT enzyme, 1 μM ATP and 125 nM Lance Eu-W1024 labeled anti phospho tyrosine antibody (Cat# AD0203, Perkin Elmer) in 384 well format. The assay reaction time with the substrate was 30 minutes after which the antibody detection mix is added. The TR-FRET signal (Excitation at 340 nm, Emission at 615 nm and 665 nm) was read with 50 μs delay time on Victor^3 V fluorimeter. The data is calculated using the ratio of reading at 665 nM to 615 nM. The final concentration of DMSO was 1% in the assay. Compounds were screened at 100 nM and 1 μM concentrations with pre-incubation of the enzymes with compound for 30 minutes. Each individual IC50 was determined using 10 point dose response curve generated by GraphPad Prism software Version 4 (San Diego, Calif., USA) using non linear regression curve fit for sigmoidal dose response (variable slope). Percentage inhibition at concentrations of 100 nM and 1.0 μM are given in table along with the IC50 (nM) details for selected examples.
For orientation: Time-resolved FRET reads energy transfer from a long-lived donor to a nearby acceptor.

T1 sequence (Q9UM73 1058-1620 limits assumed): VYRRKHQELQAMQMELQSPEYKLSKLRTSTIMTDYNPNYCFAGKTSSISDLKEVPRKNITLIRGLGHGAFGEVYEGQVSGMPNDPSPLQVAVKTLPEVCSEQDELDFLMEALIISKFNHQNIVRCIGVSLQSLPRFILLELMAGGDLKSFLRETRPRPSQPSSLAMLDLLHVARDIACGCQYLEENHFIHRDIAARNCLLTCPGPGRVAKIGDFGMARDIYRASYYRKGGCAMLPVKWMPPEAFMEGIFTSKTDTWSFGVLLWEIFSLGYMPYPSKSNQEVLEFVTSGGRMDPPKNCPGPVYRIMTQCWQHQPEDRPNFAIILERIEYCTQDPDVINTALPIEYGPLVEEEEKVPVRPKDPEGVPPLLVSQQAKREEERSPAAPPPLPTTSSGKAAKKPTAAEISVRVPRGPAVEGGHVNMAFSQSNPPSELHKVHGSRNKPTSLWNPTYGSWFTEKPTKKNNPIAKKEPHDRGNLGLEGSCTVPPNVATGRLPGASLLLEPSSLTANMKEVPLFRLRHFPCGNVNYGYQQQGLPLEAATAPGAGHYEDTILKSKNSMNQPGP

On to `CNS(=O)(=O)c1cc(-c2cnc3[nH]cc(-c4c(C)nn(Cc5cc(F)cc(F)c5)c4C)c3c2)ccc1OC` [Example 21, (3-(1-(3,5-difluorobenzyl)-3,5-dimethyl-1H-pyrazol-4-yl)-1H-pyrrolo[2,3-b]pyridin-5-yl)-2-methoxy-N-methylbenzenesulfonamide], for which the half-maximal inhibitory concentration (IC50) is less than 50 nM, the inhibition at 0.1 µM was found to be 82% and the inhibition at 1 µM stood at 96%.

`COc1ccc(-c2cnc3[nH]cc(-c4c(C)nn(Cc5cc(F)ccc5F)c4C)c3c2)cc1NS(C)(=O)=O` [Example 22, N-(5-(3-(1-(2,5-difluorobenzyl)-3,5-dimethyl-1H-pyrazol-4-yl)-1H-pyrrolo[2,3-b]pyridin-5-yl)-2-methoxyphenyl)methanesulfonamide]: the half-inhibitory concentration (IC50) was less than 50 nM, the inhibition at 0.1 µM is 62% and the inhibition at 1 µM amounted to 87%.

Turning to `Cc1nn(Cc2cccc(F)c2)c(C)c1-c1c[nH]c2ncc(-c3ccc(OCCN(C)C)c(NS(C)(=O)=O)c3)cc12` [Example 23, N-(2-(2-(dimethylamino)ethoxy)-5-(3-(1-(3-fluorobenzyl)-3,5-dimethyl-1H-pyrazol-4-yl)-1H-pyrrolo[2,3-b]pyridin-5-yl)phenyl)methanesulfonamide], the IC50 was in the range of 50 to 250 nM, the inhibition at 0.1 µM came to 73% and the inhibition at 1 µM was 99%.

`Cc1nn(Cc2cccc(F)c2)c(C)c1-c1c[nH]c2ncc(-c3ccc(OCCO)c(NS(C)(=O)=O)c3)cc12` [Example 24, N-(5-(3-(1-(3-fluorobenzyl)-3,5-dimethyl-1H-pyrazol-4-yl)-1H-pyrrolo[2,3-b]pyridin-5-yl)-2-(2-hydroxyethoxyl)phenyl)methanesulfonamide]: the half-inhibitory concentration (IC50) is less than 50 nM, the inhibition at 0.1 µM is 53% and the inhibition at 1 µM was found to be 96%.

As to `Cc1nn(Cc2cccc(F)c2)c(C)c1-c1c[nH]c2ncc(-c3ccc(OCCCO)c(NS(C)(=O)=O)c3)cc12` [Example 25, N-(5-(3-(1-(3-fluorobenzyl)-3,5-dimethyl-1H-pyrazol-4-yl)-1H-pyrrolo[2,3-b]pyridin-5-yl)-2-(3-hydroxypropoxyl)phenyl)methanesulfonamide], the IC50 was less than 50 nM, the inhibition at 0.1 µM worked out at 86% and the inhibition at 1 µM was 93%.

Turning to `Cc1nn(Cc2cccc(F)c2)c(C)c1-c1c[nH]c2ncc(-c3ccc(OCCCN(C)C)c(NS(C)(=O)=O)c3)cc12` [Example 26, N-(2-(3-(dimethylamino)propoxy)-5-(3-(1-(3-fluorobenzyl)-3,5-dimethyl-1H-pyrazol-4-yl)-1H-pyrrolo[2,3-b]pyridin-5-yl)phenyl)methanesulfonamide], the IC50 is less than 50 nM, the inhibition at 0.1 µM was 96% and the inhibition at 1 µM was determined as 100%.

In the case of `COc1ccc(-c2cc3c(-c4c(C)nn(Cc5cc(F)cc(F)c5)c4C)c[nH]c3nc2C2CC2)cc1NS(C)(=O)=O` [Example 27, N-(5-(6-cyclopropyl-3-(1-(3,5-difluorobenzyl)-3,5-dimethyl-1H-pyrazol-4-yl)-1H-pyrrolo[2,3-b]pyridin-5-yl)-2-methoxyphenyl)methanesulfonamide], the inhibition at 0.1 µM was determined as 9% and the inhibition at 1 µM was 8%.

Consider `COc1ccc(-c2cc3c(-c4c(C)nn(Cc5cccc(F)c5)c4C)c[nH]c3nc2C2CC2)cc1NS(C)(=O)=O` [Example 28, N-(5-(6-cyclopropyl-3-(1-(3-fluorobenzyl)-3,5-dimethyl-1H-pyrazol-4-yl)-1H-pyrrolo[2,3-b]pyridin-5-yl)-2-methoxyphenyl)methanesulfonamide], for which the inhibition at 0.1 µM turned out to be 14% and the inhibition at 1 µM came out at 49%.

Consider `COc1ccc(-c2cnc3[nH]cc(-c4c(C)nn(Cc5cccc(F)c5)c4C)c3c2)c(OC)c1NS(C)(=O)=O` [Example 29, N-(3-(3-(1-(3-fluorobenzyl)-3,5-dimethyl-1H-pyrazol-4-yl)-1H-pyrrolo[2,3-b]pyridin-5-yl)-2,6-dimethoxyphenyl)methanesulfonamide], for which the inhibition at 0.1 µM was 28% and the inhibition at 1 µM was 48%.

As for `COc1ccc(-c2cnc3[nH]c(C4CC4)c(-c4c(C)nn(Cc5cccc(F)c5)c4C)c3c2)cc1NS(C)(=O)=O` [Example 30, N-(5-(2-cyclopropyl-3-(1-(3-fluorobenzyl)-3,5-dimethyl-1H-pyrazol-4-yl)-1H-pyrrolo[2,3-b]pyridin-5-yl)-2-methoxyphenyl)methanesulfonamide], the inhibition at 0.1 µM is 21% and the inhibition at 1 µM amounted to 21%.

For `CC(C)(C)OC(=O)N1CCN(c2cccc(-c3cnc4[nH]cc(-c5cnn(Cc6cc(F)ccc6F)c5)c4c3)c2)CC1` [Example 31, tert-butyl 4-(3-(3-(1-(2,5-difluorobenzyl)-1 h-pyrazol-4-yl)-1 h-pyrrolo[2,3-b]pyridin-5-yl)phenyl)piperazine-1-carboxylate], the IC50 is greater than 250 nM and the inhibition at 1 µM came to 55%.

`Fc1ccc(F)c(Cn2cc(-c3c[nH]c4ncc(-c5cccc(N6CCNCC6)c5)cc34)cn2)c1` [Example 32, 3-(1-(2,5-difluorobenzyl)-1H-pyrazol-4-yl)-5-(3-(piperazin-1-yl)phenyl)-1H-pyrrolo[2,3-b]pyridine]: the 50% inhibitory concentration (IC50) is less than 50 nM and the inhibition at 1 µM amounted to 99%.

As to `Fc1cccc(Cn2cc(-c3c[nH]c4ncc(-c5cccc(N6CCNCC6)c5)cc34)cn2)c1` [Example 33, 3-(1-(3-fluorobenzyl)-1H-pyrazol-4-yl)-5-(3-(piperazin-1-yl)phenyl)-1H-pyrrolo[2,3-b]pyridine hydrochloride], the 50% inhibitory concentration (IC50) was less than 50 nM, the inhibition at 0.1 µM is 97% and the inhibition at 1 µM is 100%.

Turning to `N#CCCN1CCN(c2cccc(-c3cnc4[nH]cc(-c5cnn(Cc6cccc(F)c6)c5)c4c3)c2)CC1` [Example 34, 3-(4-(3-(3-(1-(3-fluorobenzyl)-1H-pyrazol-4-yl)-1H-pyrrolo[2,3-b]pyridin-5-yl)phenyl)piperazin-1-yl) propanenitrile], the half-maximal inhibitory concentration (IC50) is less than 50 nM, the inhibition at 0.1 µM came out at 91% and the inhibition at 1 µM turned out to be 99%.

In the case of `CC(C)N1CCN(c2cccc(-c3cnc4[nH]cc(-c5cnn(Cc6cccc(F)c6)c5)c4c3)c2)CC1` [Example 35, 3-(1-(3-fluorobenzyl)-1H-pyrazol-4-yl)-5-(3-(4-isopropylpiperazin-1-yl)phenyl)-1H-pyrrolo[2,3-b]pyridine], the half-maximal inhibitory concentration (IC50) was less than 50 nM, the inhibition at 0.1 µM worked out at 98% and the inhibition at 1 µM stood at 99%.

On to `CN1CCN(c2cccc(-c3cnc4[nH]cc(-c5cnn(Cc6cccc(F)c6)c5)c4c3)c2)CC1` [Example 36, 3-(1-(3-fluorobenzyl)-1H-pyrazol-4-yl)-5-(3-(4-methylpiperazin-1-yl)phenyl)-1H-pyrrolo[2,3-b]pyridine], for which the IC50 was less than 50 nM, the inhibition at 0.1 µM was found to be 96% and the inhibition at 1 µM turned out to be 99%.

With `Cc1nn(Cc2cccc(F)c2)cc1-c1c[nH]c2ncc(-c3cccc(N4CCNCC4)c3)cc12` [Example 37, 3-(1-(3-fluorobenzyl)-3-methyl-1H-pyrazol-4-yl)-5-(3-(piperazin-1-yl)phenyl)-1H-pyrrolo[2,3-b]pyridine], the half-inhibitory concentration (IC50) was less than 50 nM, the inhibition at 0.1 µM amounted to 93% and the inhibition at 1 µM was 98%.

As for `Cc1nn(Cc2cccc(F)c2)c(C)c1-c1c[nH]c2ncc(-c3cccc(N4CCNCC4)c3)cc12` [Example 38, 3-(1-(3-fluorobenzyl)-3,5-dimethyl-1H-pyrazol-4-yl)-5-(3-(piperazin-1-yl)phenyl)-1H-pyrrolo[2,3-b]pyridine], the IC50 was less than 50 nM, the inhibition at 0.1 µM turned out to be 87% and the inhibition at 1 µM came to 99%.

Regarding `Fc1cccc(Cn2cc(-c3c[nH]c4ncc(-c5ccc(N6CCNCC6)cc5)cc34)cn2)c1` [Example 39, 3-(1-(3-fluorobenzyl)-1H-pyrazol-4-yl)-5-(4-(piperazin-1-yl)phenyl)-1H-pyrrolo[2,3-b]pyridine hydrochloride], the IC50 is less than 50 nM, the inhibition at 0.1 µM was found to be 92% and the inhibition at 1 µM was 99%.

For the molecule `Cc1nn(Cc2cccc(F)c2)c(C)c1-c1c[nH]c2ncc(-c3ccc(N4CCNCC4)cc3)cc12` [Example 40, 3-(1-(3-fluorobenzyl)-3,5-dimethyl-1H-pyrazol-4-yl)-5-(4-(piperazin-1-yl)phenyl)-1H-pyrrolo[2,3-b]pyridine hydrochloride], the IC50 is less than 50 nM, the inhibition at 0.1 µM is 94% and the inhibition at 1 µM was 100%.

Regarding `Cc1nn(Cc2cccc(F)c2)c(C)c1-c1c[nH]c2ncc(-c3ccc(N4CCN(CCO)CC4)cc3)cc12` [Example 41, 2-(4-(4-(3-(1-(3-fluorobenzyl)-3,5-dimethyl-1H-pyrazol-4-yl)-1H-pyrrolo[2,3-b]pyridin-5-yl)phenyl)piperazin-1-yl)ethanol], the half-maximal inhibitory concentration (IC50) was less than 50 nM, the inhibition at 0.1 µM amounted to 90% and the inhibition at 1 µM amounted to 100%.

The IC50 is the concentration that inhibits the measured activity by half. The inhibition is the change of the read-out against control, counted positive when it falls.

Source of the values: patent US9353107B2 (Aurigene Discovery Technologies Limited, priority 2012, dated 2016).
